Measurements from PubChem BioAssay (NCI).
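Exposure lasted 48 hours, with cells grown in 96-well plates and compounds tested at five concentrations. TGI is the concentration that stops growth completely.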

Key:
Assay in all cases: NCI anticancer screen, dose series, 48 h
SF-539 CNS = system: SF-539 CNS
SNB-19 CNS = system: SNB-19 CNS
M14 melanoma = system: M14 melanoma
MALME-3M melanoma = system: MALME-3M melanoma
OVCAR-8 ovarian = system: OVCAR-8 ovarian
SNB-78 CNS = system: SNB-78 CNS
HCT-15 colon = system: HCT-15 colon
A498 renal = system: A498 renal
SNB-75 CNS = system: SNB-75 CNS
M19-MEL melanoma = system: M19-MEL melanoma
OVCAR-3 ovarian = system: OVCAR-3 ovarian
IGROV1 ovarian = system: IGROV1 ovarian
786-0 renal = system: 786-0 renal
RPMI-8226 leukemia = system: RPMI-8226 leukemia
SK-MEL-5 melanoma = system: SK-MEL-5 melanoma
HCT-116 colon = system: HCT-116 colon
MOLT-4 leukemia = system: MOLT-4 leukemia
U251 CNS = system: U251 CNS
SN12C renal = system: SN12C renal
SF-268 CNS = system: SF-268 CNS
DLD-1 colon = system: DLD-1 colon
DMS 273 small cell lung = system: DMS 273 small cell lung
CCRF-CEM leukemia = system: CCRF-CEM leukemia
ACHN renal = system: ACHN renal
NCI-H460 lung = system: NCI-H460 lung
DMS 114 small cell lung = system: DMS 114 small cell lung
TK-10 renal = system: TK-10 renal
NCI-H522 lung = system: NCI-H522 lung
RXF 393 renal = system: RXF 393 renal
LXFL 529 NSCLC = system: LXFL 529 NSCLC
A549 NSCLC = system: A549 NSCLC
HOP-62 NSCLC = system: HOP-62 NSCLC
EKVX NSCLC = system: EKVX NSCLC
KM12 colon = system: KM12 colon
NCI-H226 lung = system: NCI-H226 lung
OVCAR-5 ovarian = system: OVCAR-5 ovarian
OVCAR-4 ovarian = system: OVCAR-4 ovarian
SR leukemia = system: SR leukemia
SK-MEL-2 melanoma = system: SK-MEL-2 melanoma
RXF-631 renal = system: RXF-631 renal
UACC-257 melanoma = system: UACC-257 melanoma
LOX IMVI melanoma = system: LOX IMVI melanoma
NCI-H23 lung = system: NCI-H23 lung
SW-620 colon = system: SW-620 colon
HOP-92 NSCLC = system: HOP-92 NSCLC
CAKI-1 renal = system: CAKI-1 renal
HT29 colon = system: HT29 colon
SK-OV-3 ovarian = system: SK-OV-3 ovarian
K-562 leukemia = system: K-562 leukemia
SK-MEL-28 melanoma = system: SK-MEL-28 melanoma
UO-31 renal = system: UO-31 renal
COLO 205 colon = system: COLO 205 colon
KM20L2 colon = system: KM20L2 colon
MDA-N = system: MDA-N
DU-145 prostate = system: DU-145 prostate
NCI/ADR-RES ovarian = system: NCI/ADR-RES ovarian
HCC-2998 colon = system: HCC-2998 colon
SF-295 CNS = system: SF-295 CNS
PC-3 prostate = system: PC-3 prostate
HS 578T breast = system: HS 578T breast
HL-60(TB) leukemia = system: HL-60(TB) leukemia
MCF7 breast = system: MCF7 breast
T-47D breast = system: T-47D breast
MDA-MB-435 = system: MDA-MB-435
MDA-MB-231 breast = system: MDA-MB-231 breast
UACC-62 melanoma = system: UACC-62 melanoma
BT-549 breast = system: BT-549 breast
XF 498 CNS = system: XF 498 CNS
HOP-18 NSCLC = system: HOP-18 NSCLC

Work on OCCN1CCN(CCO)Cc2ccccc2OCCOc2ccccc2C1 yielded a TGI (SF-539 CNS) of over 100 µM, a TGI (SNB-19 CNS) of over 100 µM and a TGI (M14 melanoma) of over 100 µM. For the same molecule, the TGI (MALME-3M melanoma) was over 100 µM, the TGI (OVCAR-8 ovarian) was over 100 µM and the TGI (SNB-78 CNS) was over 100 µM. It also gave a TGI (HCT-15 colon) of over 100 µM, a TGI (A498 renal) of over 100 µM and a TGI (SNB-75 CNS) of over 100 µM. It also gave a TGI (M19-MEL melanoma) of over 100 µM, a TGI (OVCAR-3 ovarian) of over 100 µM and a TGI (IGROV1 ovarian) of over 100 µM. For the same molecule, the TGI (786-0 renal) was over 100 µM, the TGI (RPMI-8226 leukemia) was over 100 µM and the TGI (SK-MEL-5 melanoma) was over 100 µM. The TGI (HCT-116 colon) was over 100 µM, the TGI (MOLT-4 leukemia) was over 100 µM and the TGI (U251 CNS) was over 100 µM. For the same molecule, the TGI (SN12C renal) was over 100 µM, the TGI (SF-268 CNS) was over 100 µM and the TGI (DLD-1 colon) was over 100 µM. The TGI (DMS 273 small cell lung) was over 100 µM, the TGI (CCRF-CEM leukemia) was over 100 µM and the TGI (ACHN renal) was over 100 µM. The TGI (NCI-H460 lung) was over 100 µM, the TGI (DMS 114 small cell lung) was over 100 µM and the TGI (TK-10 renal) was over 100 µM. The TGI (NCI-H522 lung) was over 100 µM, the TGI (RXF 393 renal) was over 100 µM and the TGI (LXFL 529 NSCLC) was over 100 µM. It also gave a TGI (A549 NSCLC) of over 100 µM, a TGI (HOP-62 NSCLC) of over 100 µM and a TGI (EKVX NSCLC) of over 100 µM. The TGI (KM12 colon) was over 100 µM, the TGI (NCI-H226 lung) was over 100 µM and the TGI (OVCAR-5 ovarian) was over 100 µM. The TGI (OVCAR-4 ovarian) was over 100 µM, the TGI (SR leukemia) was over 100 µM and the TGI (SK-MEL-2 melanoma) was over 100 µM. It also gave a TGI (RXF-631 renal) of over 100 µM, a TGI (UACC-257 melanoma) of over 100 µM and a TGI (LOX IMVI melanoma) of over 100 µM. It also gave a TGI (NCI-H23 lung) of over 100 µM, a TGI (SW-620 colon) of over 100 µM and a TGI (HOP-92 NSCLC) of over 100 µM. The TGI (CAKI-1 renal) was over 100 µM, the TGI (HT29 colon) was over 100 µM and the TGI (SK-OV-3 ovarian) was over 100 µM. For the same molecule, the TGI (K-562 leukemia) was over 100 µM, the TGI (SK-MEL-28 melanoma) was over 100 µM and the TGI (UO-31 renal) was over 100 µM. For the same molecule, the TGI (COLO 205 colon) was over 100 µM and the TGI (KM20L2 colon) was over 100 µM.
Work on CCCCCCCC/C=C\CCCCCCCCNc1ccn(C2OC(COP(=O)(O)OC3CC(n4cc(F)c(=O)[nH]c4=O)OC3CO)C(O)C2O)c(=O)n1 (configuration not stated) yielded a TGI (SF-539 CNS) of 5.16 µM, a TGI (SNB-19 CNS) of over 100 µM and a TGI (M14 melanoma) of over 73.5 µM. The TGI (MALME-3M melanoma) was over 100 µM, the TGI (OVCAR-8 ovarian) was over 100 µM and the TGI (HCT-15 colon) was over 100 µM. For the same molecule, the TGI (A498 renal) was over 53.2 µM, the TGI (MDA-N) was over 100 µM and the TGI (DU-145 prostate) was over 100 µM. It also gave a TGI (SNB-75 CNS) of over 100 µM, a TGI (OVCAR-3 ovarian) of over 100 µM and a TGI (IGROV1 ovarian) of over 100 µM. For the same molecule, the TGI (786-0 renal) was over 100 µM, the TGI (RPMI-8226 leukemia) was over 100 µM and the TGI (SK-MEL-5 melanoma) was over 100 µM. The TGI (HCT-116 colon) was over 100 µM, the TGI (MOLT-4 leukemia) was 20.5 µM and the TGI (U251 CNS) was over 100 µM. It also gave a TGI (SN12C renal) of over 100 µM, a TGI (SF-268 CNS) of over 100 µM and a TGI (CCRF-CEM leukemia) of 17.9 µM. It also gave a TGI (ACHN renal) of over 100 µM, a TGI (NCI-H460 lung) of over 100 µM and a TGI (NCI/ADR-RES ovarian) of over 100 µM. The TGI (HCC-2998 colon) was over 100 µM, the TGI (SF-295 CNS) was over 100 µM and the TGI (TK-10 renal) was over 100 µM. For the same molecule, the TGI (NCI-H522 lung) was over 100 µM, the TGI (RXF 393 renal) was over 100 µM and the TGI (A549 NSCLC) was over 100 µM. For the same molecule, the TGI (HOP-62 NSCLC) was over 100 µM, the TGI (PC-3 prostate) was over 100 µM and the TGI (EKVX NSCLC) was over 100 µM. It also gave a TGI (KM12 colon) of over 100 µM, a TGI (HS 578T breast) of over 100 µM and a TGI (HL-60(TB) leukemia) of 45.7 µM. The TGI (NCI-H226 lung) was over 100 µM, the TGI (MCF7 breast) was over 100 µM and the TGI (OVCAR-5 ovarian) was over 100 µM. It also gave a TGI (OVCAR-4 ovarian) of over 100 µM, a TGI (SR leukemia) of 37.7 µM and a TGI (T-47D breast) of over 100 µM. For the same molecule, the TGI (SK-MEL-2 melanoma) was over 100 µM, the TGI (UACC-257 melanoma) was over 100 µM and the TGI (LOX IMVI melanoma) was over 37.2 µM. The TGI (MDA-MB-435) was over 100 µM, the TGI (NCI-H23 lung) was over 30.3 µM and the TGI (SW-620 colon) was over 100 µM. The TGI (HOP-92 NSCLC) was over 100 µM, the TGI (MDA-MB-231 breast) was over 100 µM and the TGI (CAKI-1 renal) was over 100 µM. It also gave a TGI (HT29 colon) of over 61.8 µM, a TGI (SK-OV-3 ovarian) of over 100 µM and a TGI (K-562 leukemia) of over 100 µM. For the same molecule, the TGI (SK-MEL-28 melanoma) was over 100 µM, the TGI (UO-31 renal) was over 100 µM and the TGI (UACC-62 melanoma) was over 95 µM. It also gave a TGI (BT-549 breast) of over 100 µM and a TGI (COLO 205 colon) of over 100 µM.
Cc1cc(N(CCC#N)CCC#N)ccc1/C=C1/CN(N2C(=O)/C(=C/c3ccc(N(CCC#N)CCC#N)cc3C)N=C2c2ccccc2)C(c2ccccc2)=N1 was tested, and the TGI (SF-539 CNS) was over 100 µM, the TGI (SNB-19 CNS) was over 100 µM and the TGI (M14 melanoma) was over 100 µM. The TGI (MALME-3M melanoma) was over 100 µM, the TGI (OVCAR-8 ovarian) was over 100 µM and the TGI (SNB-78 CNS) was over 100 µM. The TGI (HCT-15 colon) was over 100 µM, the TGI (A498 renal) was over 100 µM and the TGI (SNB-75 CNS) was 51.1 µM. It also gave a TGI (M19-MEL melanoma) of over 100 µM, a TGI (OVCAR-3 ovarian) of over 100 µM and a TGI (IGROV1 ovarian) of over 100 µM. For the same molecule, the TGI (786-0 renal) was over 100 µM, the TGI (SK-MEL-5 melanoma) was over 100 µM and the TGI (HCT-116 colon) was over 100 µM. The TGI (MOLT-4 leukemia) was over 100 µM, the TGI (U251 CNS) was over 100 µM and the TGI (SN12C renal) was over 100 µM. For the same molecule, the TGI (SF-268 CNS) was over 100 µM, the TGI (DLD-1 colon) was over 100 µM and the TGI (DMS 273 small cell lung) was over 100 µM. The TGI (CCRF-CEM leukemia) was over 100 µM, the TGI (ACHN renal) was over 100 µM and the TGI (NCI-H460 lung) was over 100 µM. The TGI (DMS 114 small cell lung) was over 100 µM, the TGI (HCC-2998 colon) was over 100 µM and the TGI (SF-295 CNS) was over 100 µM. It also gave a TGI (TK-10 renal) of 75.9 µM, a TGI (NCI-H522 lung) of over 100 µM and a TGI (RXF 393 renal) of 76.8 µM. It also gave a TGI (LXFL 529 NSCLC) of over 100 µM, a TGI (A549 NSCLC) of over 100 µM and a TGI (HOP-62 NSCLC) of over 100 µM. For the same molecule, the TGI (EKVX NSCLC) was over 100 µM, the TGI (KM12 colon) was over 100 µM and the TGI (HL-60(TB) leukemia) was over 100 µM. The TGI (NCI-H226 lung) was over 100 µM, the TGI (OVCAR-5 ovarian) was over 100 µM and the TGI (OVCAR-4 ovarian) was over 100 µM. For the same molecule, the TGI (SR leukemia) was over 100 µM, the TGI (UACC-257 melanoma) was over 100 µM and the TGI (XF 498 CNS) was over 100 µM. For the same molecule, the TGI (LOX IMVI melanoma) was over 100 µM, the TGI (NCI-H23 lung) was over 100 µM and the TGI (SW-620 colon) was over 100 µM. For the same molecule, the TGI (HOP-92 NSCLC) was over 100 µM, the TGI (CAKI-1 renal) was over 100 µM and the TGI (HT29 colon) was over 100 µM. For the same molecule, the TGI (K-562 leukemia) was over 100 µM, the TGI (SK-MEL-28 melanoma) was over 100 µM and the TGI (UO-31 renal) was over 100 µM. For the same molecule, the TGI (UACC-62 melanoma) was over 100 µM, the TGI (COLO 205 colon) was over 100 µM and the TGI (KM20L2 colon) was over 100 µM. For the same molecule, the TGI (HOP-18 NSCLC) was over 100 µM.
